The values that follow come from patent US12173212B2, “Design, synthesis, and photophysical properties of a novel NIR II dye for biological imaging and optoelectronic devices” (University of Mississippi, priority 2020, dated 2024).

Data set [1] can be described thus: Fluorescence spectra (Horiba QuantaMaster 8075-21 spectrofluorometer, InGaAs detector). The format is physicochemical. The following applies: closed spirolactone structure. On the procedure:
(§1) All chemicals and solvents were purchased from commercial suppliers and used without further purification unless other-wise specified. ^1H NMR (500 MHz) and ^13C NMR ([…]) spectra were recorded in deuterated solvents on a Bruker ADVANCE 500 NMR Spectrometer. J values are expressed in Hz and quoted chemical shifts are in ppm downfield from tetramethylsilane (TMS) reference using the residual protonated solvents as an internal standard. The signals have been designated as follows: s (singlet), d (doublet), t (triplet), m (multiplets). High resolution mass spectra (HRMS) were deter-mined on Bruker-micrOTOF-Q II Mass Spectrometer. Absorption spectra were acquired using a Cary 5000 UV-Vis-NIR spectrophotometer in a 1 cm quartz cell. Fluorescence spectra were acquired using a Horiba QuantaMaster 8075-21 spectrofluorometer with xenon lamp excitation and liquid nitrogen cooled indium gallium arsenide solid state detector. […] The relative quantum yield of the rhodindolizine dye was calculated using a known technique. […] The absorbance point for the quantum yield was chosen because of similar overlap in the absorption spectra between the standard and the rhodindolizine dye. […]
(§2) Additionally, a range of solvent polarities were evaluated to access the polarity of RhIndz in the ground-state via absorption spectroscopy and in the excited-state via fluorescence spectroscopy (Table 6).

Data set [2] can be described thus: Absorption spectra (Cary 5000 UV-Vis-NIR spectrophotometer, 1 cm quartz cell). It is filed as physicochemical. The following applies: ring closed lactone form, FIG. 2. The procedure:
as §1, §2

In the case of `Cc1c(-c2ccccc2)c(-c2ccc3c(c2)Oc2cc(-c4c(-c5ccccc5)c(C)c5ccccn45)ccc2C32OC(=O)c3ccccc32)n2ccccc12` [RhIndz, 3′,6′-bis(1-methyl-2-phenylindolizin-3-yl)-3H-spiro[2-benzofuran-1,9′-xanthen]-3-one], the “fluorescence of closed spirocyclic form” value in data set [1] is “non-fluorescent”. In data set [2], this compound came in with an absorption maximum of 375 nm.
